In EP3046573B1, “AMYLIN ANALOGUES” (Zealand Pharma A/S, priority 2013, dated 2015):
Like-named read-outs stand apart in the source and are kept apart here. Numbered stars: 1 amine (or outer) side, 2 acyl side, 3 side chain; on linkers, the order of the positions; unused ones are H or OH. Bridge positions count the residues as written; N and C are the ends. Square brackets hold non-standard residues; d marks the D form. Peptide text beside a SMILES is read from it. * marks the point of attachment. C20 diacid = O=C(O)CCCCCCCCCCCCCCCCCCC(=O)*; γGlu = O=C(O)[C@H](CCC(=O)[*:2])N[*:1]; NMeI = CC[C@H](C)[C@H](NC)C(=O)O; Sar = CNCC(=O)O

How the values were obtained:
[1] = biological target: T1, human calcitonin receptor (hCTR2) (Homo sapiens, UniProt P30988); assay: hCTR2 assay: induction of cAMP (AlphaScreen cAMP Assay kit) in COS7 cells expressing hCTR2; format: cell-based
T1 construct: expressed in transfected cells
T1 sequence (P30988 25-474): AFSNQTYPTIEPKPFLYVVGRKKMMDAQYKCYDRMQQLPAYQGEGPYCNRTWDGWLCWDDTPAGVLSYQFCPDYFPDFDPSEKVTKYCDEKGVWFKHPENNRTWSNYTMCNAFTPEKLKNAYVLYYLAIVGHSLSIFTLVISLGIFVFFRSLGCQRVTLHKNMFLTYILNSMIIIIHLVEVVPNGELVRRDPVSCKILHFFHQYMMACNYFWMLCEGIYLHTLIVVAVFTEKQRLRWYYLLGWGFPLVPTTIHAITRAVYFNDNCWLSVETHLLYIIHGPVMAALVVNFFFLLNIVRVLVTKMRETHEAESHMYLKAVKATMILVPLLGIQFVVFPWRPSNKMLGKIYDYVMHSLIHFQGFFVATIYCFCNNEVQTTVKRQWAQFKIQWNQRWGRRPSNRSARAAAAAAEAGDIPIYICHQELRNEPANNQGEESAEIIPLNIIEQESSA
Summary of the method: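 cAMP read-out by AlphaScreen after cell lysis; EC50 and % efficacy vs pramlintide from 4-parameter logistic fitting. Agonist stimulation: hCTR2-COS7 stable cells, 15 min, 37° C, 100 µM IBMX, 0.1% casein, Tyrode/HEPES pH 7.4.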

[2] = Solubility assessment (turbidity absorbance at 325 nm); format: physicochemical; settings: stock 2 mg/ml diluted 1:1, ambient temperature (typically 25°C), n=1; for Solubility, Acetate buffer pH 4: 100 mM acetate buffer pH 4.0; for Solubility, Acetate buffer pH 5: 100 mM acetate buffer pH 5.0; for Solubility, Histidine buffer pH 6: 100 mM histidine buffer pH 6.0; for Solubility, Histidine buffer pH 7: 100 mM histidine buffer pH 7.0; for Solubility, Phosphate buffer pH 6: 100 mM phosphate buffer pH 6.0; for Solubility, Phosphate buffer pH 7: 100 mM phosphate buffer pH 7.0; for Solubility, Phosphate buffer pH 7.5: 100 mM phosphate buffer pH7.5
Summary of the method: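 Turbidity read as absorbance at 325 nm (also 280 nm), single samples at ambient temperature (typically 25°C); ≤ 0.02 units counts as ≥ 1 mg/ml soluble. Samples made by 1:1 dilution of a 2 mg/ml acidic stock into 100 mM acetate, histidine or phosphate buffers, pH 4.0–7.5.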

[3] = cAMP induction in COS7 cells expressing hCTR2, average of a minimum of 3 determinations, read-out: hCTR2 EC50

| SMILES | EC50 [1, 3] [pM] | Solubility, Acetate buffer pH 4 [2] | Solubility, Acetate buffer pH 5 [2] | Solubility, Histidine buffer pH 6 [2] | Solubility, Histidine buffer pH 7 [2] | Solubility, Phosphate buffer pH 6 [2] | Solubility, Phosphate buffer pH 7 [2] | Solubility, Phosphate buffer pH 7.5 [2] | EC50 [1] [pM] |
| --- | --- | --- | --- | --- | --- | --- | --- | --- | --- |
| CC[C@H](C)[C@@H](C(=O)N[C@@H](CC(C)C)C(=O)N[C@@H](CO)C(=O)N[C@@H](CO)C(=O)N[C@H](C(=O)N[C@@H](CC(=O)O)C(=O)N[C@H](C(=O)NCC(=O)N[C@@H](CO)C(=O)N[C@@H](CCC(=O)O)C(=O)N[C@H](C(=O)N1CCC[C@H]1C(N)=O)[C@@H](C)O)C(C)C)[C@@H](C)O)N(C)C(=O)[C@H](C)NC(=O)CN(C)C(=O)[C@H](Cc1ccccc1)NC(=O)[C@H](CO)NC(=O)[C@H](CO)NC(=O)[C@H](CCCNC(=N)N)NC(=O)[C@H](Cc1c[nH]cn1)NC(=O)[C@H](CC(C)C)NC(=O)[C@H](Cc1ccccc1)NC(=O)[C@H](CCC(=O)O)NC(=O)[C@H](C)NC(=O)[C@H](CC(C)C)NC(=O)[C@H](CCCNC(=N)N)NC(=O)[C@H](CCC(N)=O)NC(=O)[C@@H](NC(=O)[C@H](C)NC(=O)[C@@H]1CSSC[C@H](NC(=O)[C@H](CCCNC(=N)N)NC(=O)CC[C@H](NC(=O)CCCCCCCCCCCCCCCCCCC(=O)O)C(=O)O)C(=O)N[C@@H](CC(N)=O)C(=O)N[C@@H]([C@@H](C)O)C(=O)N[C@@H](C)C(=O)N[C@@H]([C@@H](C)O)C(=O)N1)[C@@H](C)O [Compound 80, [19CD]-isoGlu-RC()NTATC()ATQRLAEFLHRSSF-Gly(Me)-A-Ile(Me)-LSSTDVGSETP-NH2] ({C20 diacid-γGlu}-RCNTATCATQRLAEFLHRSSF[Sar]A[NMeI]LSSTDVGSETP-NH2; disulfide 2-7) | 62 | SS (SS indicates solubility ≥ 1mg/ml) | SS (SS indicates solubility ≥ 1mg/ml) | II (II indicates solubility ≤ 1 mg/ml) | SS (SS indicates solubility ≥ 1mg/ml) | SS (SS indicates solubility ≥ 1mg/ml) | SS (SS indicates solubility ≥ 1mg/ml) | SS (SS indicates solubility ≥ 1mg/ml) |  |
| CC[C@H](C)[C@@H](C(=O)N[C@@H](CC(C)C)C(=O)N[C@@H](CO)C(=O)N[C@@H](CO)C(=O)N[C@H](C(=O)N[C@@H](CC(=O)O)C(=O)N[C@H](C(=O)NCC(=O)N[C@@H](CO)C(=O)N[C@@H](CC(=O)O)C(=O)N[C@H](C(=O)N1CCC[C@H]1C(N)=O)[C@@H](C)O)C(C)C)[C@@H](C)O)N(C)C(=O)[C@H](C)NC(=O)CN(C)C(=O)[C@H](Cc1ccccc1)NC(=O)[C@H](CO)NC(=O)[C@H](CO)NC(=O)[C@H](CCCNC(=N)N)NC(=O)[C@H](Cc1c[nH]cn1)NC(=O)[C@H](CC(C)C)NC(=O)[C@H](Cc1ccccc1)NC(=O)[C@H](CCC(=O)O)NC(=O)[C@H](C)NC(=O)[C@H](CC(C)C)NC(=O)[C@H](CCCNC(=N)N)NC(=O)[C@H](CCC(N)=O)NC(=O)[C@@H](NC(=O)[C@H](C)NC(=O)[C@@H]1CSSC[C@H](NC(=O)[C@H](CCCNC(=N)N)NC(=O)CC[C@H](NC(=O)CCCCCCCCCCCCCCCCCCC(=O)O)C(=O)O)C(=O)N[C@@H](CC(N)=O)C(=O)N[C@@H]([C@@H](C)O)C(=O)N[C@@H](C)C(=O)N[C@@H]([C@@H](C)O)C(=O)N1)[C@@H](C)O [Compound 81, [19CD]-isoGlu-RC()NTATC()ATQRLAEFLHRSSF-Gly(Me)-A-Ile(Me)-LSSTDVGSDTP-NH2] ({C20 diacid-γGlu}-RCNTATCATQRLAEFLHRSSF[Sar]A[NMeI]LSSTDVGSDTP-NH2; disulfide 2-7) | 57 | SS (SS indicates solubility ≥ 1mg/ml) | SS (SS indicates solubility ≥ 1mg/ml) | SS (SS indicates solubility ≥ 1mg/ml) | SS (SS indicates solubility ≥ 1mg/ml) | SS (SS indicates solubility ≥ 1mg/ml) | SS (SS indicates solubility ≥ 1mg/ml) | SS (SS indicates solubility ≥ 1mg/ml) |  |
| CC[C@H](C)[C@@H](C(=O)N[C@@H](CC(C)C)C(=O)N[C@@H](CO)C(=O)N[C@@H](CO)C(=O)N[C@H](C(=O)N[C@@H](CC(N)=O)C(=O)N[C@H](C(=O)NCC(=O)N[C@@H](CO)C(=O)N[C@@H](CC(N)=O)C(=O)N[C@H](C(=O)N1CCC[C@H]1C(N)=O)[C@@H](C)O)C(C)C)[C@@H](C)O)N(C)C(=O)[C@H](C)NC(=O)CN(C)C(=O)[C@H](Cc1ccccc1)NC(=O)[C@H](CC(N)=O)NC(=O)[C@H](CC(N)=O)NC(=O)[C@H](CO)NC(=O)[C@H](CO)NC(=O)[C@H](CCCNC(=N)N)NC(=O)[C@H](Cc1c[nH]cn1)NC(=O)[C@H](CC(C)C)NC(=O)[C@H](Cc1ccccc1)NC(=O)[C@H](CCC(=O)O)NC(=O)[C@H](C)NC(=O)[C@H](CC(C)C)NC(=O)[C@H](CCCNC(=N)N)NC(=O)[C@H](CCC(N)=O)NC(=O)[C@@H](NC(=O)[C@H](C)NC(=O)[C@@H]1CSSC[C@H](NC(=O)[C@H](CCCNC(=N)N)NC(=O)[C@H](Cc2c[nH]cn2)NC(=O)CC[C@H](NC(=O)CCCCCCCCCCCCCCCCCCC(=O)O)C(=O)O)C(=O)N[C@@H](CC(N)=O)C(=O)N[C@@H]([C@@H](C)O)C(=O)N[C@@H](C)C(=O)N[C@@H]([C@@H](C)O)C(=O)N1)[C@@H](C)O [Compound 85, [19CD]-isoGlu-HRC()NTATC()ATQRLAEFLHRSSNNF-Gly(Me)-A-Ile(Me)-LSSTNVGSNTP-NH2] ({C20 diacid-γGlu}-HRCNTATCATQRLAEFLHRSSNNF[Sar]A[NMeI]LSSTNVGSNTP-NH2; disulfide 3-8) |  | SS (SS indicates solubility ≥ 1mg/ml) | SS (SS indicates solubility ≥ 1mg/ml) | SS (SS indicates solubility ≥ 1mg/ml) | SS (SS indicates solubility ≥ 1mg/ml) | SS (SS indicates solubility ≥ 1mg/ml) | SS (SS indicates solubility ≥ 1mg/ml) | SS (SS indicates solubility ≥ 1mg/ml) | 83 |
